The record followed here is US11725000B2, “Apoptosis inhibitors” (National Institute of Biological Sciences, Beijing, priority 2017, dated 2023).

The test relates to U2OS_Bim cells. Kind of test: Apoptosis inhibition assay (Bim-induced apoptosis, cell viability by ATP level). As to conditions: U2OS_Bim cells, read-out: EC50. Type of test: cell-based. Put shortly:
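Apoptosis was triggered by doxycycline (0.1 μg/mL) induction of Bim, one hour after compound addition to U2OS_Bim cells. Survival was measured after 24 h from cellular ATP (CellTiter-Glo), relative to DMSO, with zVAD at 20 μM as rescue control. Data are duplicate means, some estimated from preliminary results.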

Where [1] appears, read: means of duplicates, numbering of Tables 4a/4b.

Where two headings read alike, the source gives them in different places.

In general, EC50 refers to the midpoint of the concentration-response curve. Take `COc1ccc(Cn2cc(-c3cc(C(F)F)nc(S(=O)(=O)CCCC(=O)NC45CC6CC(CC(C6)C4)C5)n3)ccc2=O)cc1OC` [Compound 288, N-((3s,5s,7s)-adamantan-1-yl)-4-((4-(difluoromethyl)-6-(1-(3,4-dimethoxybenzyl)-6-oxo-1,6-dihydropyridin-3-yl)pyrimidin-2-yl)sulfonyl)butanamide]: the EC50 under setting [1] fell in the range of 1 to 1000 nM.

`COc1ccc(Cn2cc(-c3cc(C(F)(F)F)nc(S(=O)(=O)CCCC(=O)NC45CC6CC(CC(C6)C4)C5)n3)ccc2=O)cc1OC` [Compound 289]: the EC50 runs as follows: (DOX-induced Bim overexpression, viability 24 h after DOX) 0.42 nM; under setting [1], 1 to 1000 nM.

Consider `[O-][S+](CCC(OCc1ccccc1)c1ccccc1)c1nc(-c2cccs2)cc(C(F)(F)F)n1` (stereo not shown) [Compound 290, 2-(3-(benzyloxy)-3-phenylpropylsulfinyl)-4-(thiophen-2-yl)-6-(trifluoromethyl)pyrimidine], for which, under setting [1], the concentration giving a half-maximal response (EC50) was in the range of 1000 to 10000 nM.

Consider `O=S(=O)(CCC(OCc1ccccc1)c1ccccc1)c1nc(-c2cccs2)cc(C(F)(F)F)n1` (stereo not shown) [Compound 291, 2-(3-(benzyloxy)-3-phenylpropylsulfonyl)-4-(thiophen-2-yl)-6-(trifluoromethyl)pyrimidine], for which, under setting [1], the concentration for a half-maximal effect (EC50) fell in the range of 1000 to 10000 nM.

For the molecule `O=S(=O)(CCC(Cl)c1ccccc1)c1nc(-c2cccs2)cc(C(F)(F)F)n1` (stereo not shown) [Compound 292, 2-((3-chloro-3-phenylpropyl)sulfonyl)-4-(thiophen-2-yl)-6-(trifluoromethyl)pyrimidine], under setting [1], the 50% effective concentration (EC50) fell in the range of 1000 to 10000 nM.

As to `COc1ccc(Cn2cc(-c3nc(S(=O)(=O)CCC(OCc4ccccc4)c4ccccc4)nc4ccccc34)ccc2=O)cc1OC` (stereo not shown) [Compound 293, 5-(2-((3-(benzyloxy)-3-phenylpropyl)sulfonyl)quinazolin-4-yl)-1-(3,4-dimethoxybenzyl)pyridin-2 (1H)-one], under setting [1], the EC50 lay in the range of 1 to 1000 nM.

`COc1ccc(Cn2cc(-c3cc(C)nc([S+]([O-])CCC(OCc4ccccc4)c4ccccc4)n3)ccc2=O)cc1OC` (stereo not shown) [Compound 294, 5-(2-(3-(benzyloxy)-3-phenylpropylsulfinyl)-6-methylpyrimidin-4-yl)-1-(3,4-dimethoxybenzyl)pyridin-2 (1H)-one]: the EC50 under setting [1] was 1 to 1000 nM.

In the case of `COc1ccc(Cn2cc(-c3cc(C)nc(S(=O)(=O)CCC(OCc4ccccc4)c4ccccc4)n3)ccc2=O)cc1OC` (stereo not shown) [Compound 295, 5-(2-(3-(benzyloxy)-3-phenylpropylsulfonyl)-6-methylpyrimidin-4-yl)-1-(3,4-dimethoxybenzyl)pyridin-2 (1H)-one], the EC50 under setting [1] lay in the range of 1 to 1000 nM.

Turning to `COc1ccc(Cn2cc(-c3cc(-c4ccccc4F)nc(S(C)(=O)=O)n3)ccc2=O)cc1OC` [Compound 296, 1-(3,4-dimethoxybenzyl)-5-(6-(2-fluorophenyl)-2-(methylsulfonyl)pyrimidin-4-yl)pyridin-2 (1H)-one], the 50% effective concentration (EC50) under setting [1] lay in the range of 1000 to 10000 nM.

As to `COc1ccc(Cn2cc(-c3cc(-c4ccccc4F)nc([S+]([O-])CCC(OCc4ccccc4)c4ccccc4)n3)ccc2=O)cc1OC` (stereo not shown) [Compound 297, 5-(2-((3-(benzyloxy)-3-phenylpropyl)sulfinyl)-6-(2-fluorophenyl)pyrimidin-4-yl)-1-(3,4-dimethoxybenzyl)pyridin-2 (1H)-one], the EC50 under setting [1] was less than 100000 nM.

Turning to `COc1ccc(Cn2cc(-c3cc(-c4ccccc4F)nc(S(=O)(=O)CCC(OCc4ccccc4)c4ccccc4)n3)ccc2=O)cc1OC` (stereo not shown) [Compound 298, 5-(2-((3-(benzyloxy)-3-phenylpropyl)sulfonyl)-6-(2-fluorophenyl)pyrimidin-4-yl)-1-(3,4-dimethoxybenzyl)pyridin-2 (1H)-one], the 50% effective concentration (EC50) under setting [1] is less than 100000 nM.

Turning to `COc1ccc(Cn2cc(-c3cc(-c4cccs4)nc([S+]([O-])CCC(OCc4ccccc4)c4ccccc4)n3)ccc2=O)cc1OC` (stereo not shown) [Compound 299, 5-(2-((3-(benzyloxy)-3-phenylpropyl)sulfinyl)-6-(thiophen-2-yl)pyrimidin-4-yl)-1-(3,4-dimethoxybenzyl)pyridin-2 (1H)-one], the EC50 under setting [1] is less than 100000 nM.

`COc1ccc(Cn2cc(-c3cc(-c4cccs4)nc(S(=O)(=O)CCC(OCc4ccccc4)c4ccccc4)n3)ccc2=O)cc1OC` (stereo not shown) [Compound 300, 5-(2-((3-(benzyloxy)-3-phenylpropyl)sulfonyl)-6-(thiophen-2-yl)pyrimidin-4-yl)-1-(3,4-dimethoxybenzyl)pyridin-2 (1H)-one]: the 50% effective concentration (EC50) under setting [1] lay within 1 to 1000 nM.

With `COc1ccc(Cn2cc(-c3nc([S+]([O-])CCC(OCc4ccccc4F)c4ccccc4)nc4sccc34)cc(F)c2=O)cc1F` (stereo not shown) [Compound 301, 3-fluoro-1-(3-fluoro-4-methoxybenzyl)-5-(2-(3-(2-fluorobenzyloxy)-3-phenylpropylsulfinyl)thieno[2,3-d]pyrimidin-4-yl)pyridin-2 (1H)-one], under setting [1], the concentration for a half-maximal effect (EC50) was in the range of 1000 to 10000 nM.

As to `COc1ccc(Cn2cc(-c3nc(S(=O)(=O)CCC(OCc4ccccc4F)c4ccccc4)nc4sccc34)cc(F)c2=O)cc1F` (stereo not shown) [Compound 302, 3-fluoro-1-(3-fluoro-4-methoxybenzyl)-5-(2-(3-(2-fluorobenzyloxy)-3-phenylpropylsulfonyl)thieno[2,3-d]pyrimidin-4-yl)pyridin-2 (1H)-one], the EC50 under setting [1] was in the range of 1 to 1000 nM.

As for `COc1ccc(Cn2cc(-c3cc(C)nc(S(=O)(=O)CCC(C)=O)n3)cc(F)c2=O)cc1F` [Compound 303, 3-fluoro-1-(3-fluoro-4-methoxybenzyl)-5-(6-methyl-2-((3-oxobutyl)sulfonyl)pyrimidin-4-yl)pyridin-2 (1H)-one], the EC50 under setting [1] is less than 100000 nM.

For `COc1ccc(Cn2cc(-c3cc(C)nc([S+]([O-])CCC(C)OCc4ccccc4F)n3)cc(F)c2=O)cc1F` (stereo not shown) [Compound 304, 3-fluoro-1-(3-fluoro-4-methoxybenzyl)-5-(2-((3-((2-fluorobenzyl)oxy)butyl)sulfinyl)-6-methylpyrimidin-4-yl)pyridin-2 (1H)-one], under setting [1], the 50% effective concentration (EC50) was less than 100000 nM.

Regarding `COc1ccc(Cn2cc(-c3cc(C)nc(S(=O)(=O)CCC(C)OCc4ccccc4F)n3)cc(F)c2=O)cc1F` (stereo not shown) [Compound 305, 3-fluoro-1-(3-fluoro-4-methoxybenzyl)-5-(2-((3-((2-fluorobenzyl)oxy)butyl)sulfonyl)-6-methylpyrimidin-4-yl)pyridin-2 (1H)-one], the half-maximal effective concentration (EC50) under setting [1] fell in the range of 1 to 1000 nM.

As for `Cc1cc(-c2cnc(=O)n(Cc3ccc4c(c3)OCO4)c2)nc(S(=O)(=O)CCC(OCc2ccccc2F)c2ccccc2)n1` (stereo not shown) [Compound 307, 1′-(benzo[d][1,3]dioxol-5-ylmethyl)-2-((3-((2-fluorobenzyl)oxy)-3-phenylpropyl)sulfonyl)-6-methyl-[4,5′-bipyrimidin]-2′(1′H)-one], the concentration giving a half-maximal response (EC50) under setting [1] was in the range of 1 to 1000 nM.

For `Cc1cc(-c2cc(F)c(=O)n(CC3CCCCC3)c2)nc([S+]([O-])CCC(OCc2ccc(F)cc2F)c2ccccc2)n1` (stereo not shown) [Compound 308, 1-(cyclohexylmethyl)-5-(2-(3-(2,4-difluorobenzyloxy)-3-phenylpropylsulfinyl)-6-methylpyrimidin-4-yl)-3-fluoropyridin-2 (1H)-one], the EC50 under setting [1] is less than 100000 nM.

With `Cc1cc(-c2cc(F)c(=O)n(CC3CCCCC3)c2)nc(S(=O)(=O)CCC(OCc2ccc(F)cc2F)c2ccccc2)n1` (stereo not shown) [Compound 309, 1-(cyclohexylmethyl)-5-(2-(3-(2,4-difluorobenzyloxy)-3-phenylpropylsulfonyl)-6-methylpyrimidin-4-yl)-3-fluoropyridin-2 (1H)-one], under setting [1], the EC50 was 1000 to 10000 nM.
